Experimental data from patent US20070154449A1, “TIGHT JUNCTION MODULATING PEPTIDES FOR ENHANCED MUCOSAL DELIVERY OF THERAPEUTIC COMPOUNDS” (Nastech Pharmaceutical Company Inc., priority 2005, published 2007).

Tests used:
Type in all cases: cell-based
[1] = system: human-derived tracheal/bronchial epithelial cells (EpiAirway™ Tissue model system); assay: FITC-Dextran (FD3) permeation assay, EpiAirway tissue model; conditions: for % FD3 Permeation: 1 h at 37° C.
Protocol: A FITC labeled dextran with a molecular weight 3000 (FD3) was used to assess the efficacy of individual TJMP on epithelial cell monolayer permeation. The tissue insert plates were transferred to a 96-well receiver plate containing 200 μl of DPBS++ as basal media. The apical surface of each tissue culture insert was incubated with a 20 μl sample of a single test formulation (refer to Table 4 in Example 2 for details of test formulations) for one hour at 37° C. in the dark on a shaker (˜100 rpm). Following the 1 hour incubation period, underlying basal media samples were taken from each tissue culture insert and temporarily stored in the dark at room temperature until FD3 levels were quantified by fluorescence spectroscopy. For FD3 measurements, a 150 μl of basal media sample was transferred to a black, clear bottom 96-well plate. Fluorescence emission at 528/20 following excitation at 485/20 were measured using a FLx800 fluorescence plate reader from Biotek Instruments.
Permeation was calculated as: [formula] [formula] Formula terms for permeation defined: […]
(§1) Of the total 300 μl volume for each test formulation, only a 20 μl sample was applied to the human-derived tracheal/bronchial epithelial cells (EpiAirway™ Tissue model system) in order to assess the effect each test formulation had on TER, LDH and sample permeation.

[2] = system: human-derived tracheal/bronchial epithelial cells (EpiAirway™ Tissue model system); assay: Transepithelial electrical resistance (TER), EpiAirway tissue model; conditions: pH 7, 20 μl applied
Protocol: EpiAirway™ culture membranes were received the day before the experiments started. They are shipped in phenol red-free and hydrocortisone-free Dulbecco's Modified Eagle's Medium (DMEM). The cells are ciliated and psudostratefied, grown to confluency on Millipore Multiscreen Caco-2 96-well assay system comprised of a polycarbonate filter system. Upon receipt, the insert system will be stored unopened at 4° C. and/or cultured in 250 μl basal media per well (phenol red-free and hydrocortisone-free Dulbecco's Modified Eagle's Medium (DMEM)) at 37° C./5% CO2 for 24 hours before use.
TER measurements were taken using the REMS Autosampler (World Precision Instruments, Sarasota, Fla.) with the electrode leads. The electrodes and a tissue culture blank insert will be equilibrated for at least 20 minutes in MatTek Air-100™ medium with the power off prior to checking calibration. The background resistance of the insert system has been established by multiple measurements of a blank insert plate and the same value was used for each test on the platform. Time zero TER (TER0) was measured before incubation of the inserts with the test formulation. The top electrode will be as adjusted so that it is close to, but not making contact with, the top surface of the insert membrane. Background resistance of the blank insert should be about 5-20 ohms. For each TER determination, 100 μl of MatTek Air-100™ medium was added to the insert and 250 μl in the basal well followed by placement in the Endohm chamber. All TER values are reported as a function of the surface area of the tissue. Resistance was expressed as both Ohms*cm^2 and percent original TER value.
TER values were calculated as: [formula] [formula] Formula terms for TER calculation defined: […]
A decrease in TER value relative to the control value indicates a decrease in cell membrane resistance and an increase in mucosal epithelial cell permeability.
as §1

[3] = system: human-derived tracheal/bronchial epithelial cells (EpiAirway™ Tissue model system); assay: Cytotoxicity (LDH assay), EpiAirway tissue model; conditions: 1 h incubation, % of 1% Triton X-100 control
Protocol: The amount of cell death was assayed by measuring the release of lactate dehydrogenase (LDH) from the cells into the apical medium using a CytoTox 96 Cytotoxicity Assay Kit (Promega Corp., Madison, Wis.). One percent Octylphenolpoly (ethyleneglycolether)×(Triton X-100™) diluted in phosphate buffered saline (PBS) causes 100% lysis in cultured cells and served herein as a positive control for the LDH assay. Following the one hour incubation period with a test formulation (refer to Table 4 in Example 2 for details of test formulations), the total liquid volume of each insert was brought to a final volume of 200 μl with culture medium. The apical medium was then mixed by pipetting four times with a multichannel pipette set to a 100 μl volume. After mixing, a 100 μl sample from the apical side of each insert was transferred to a new 96-well plate. The apical media samples were sealed with a plate sealer and stored at room temperature for same day analysis or stored overnight at 4° C. for analysis the next day. To measure LDH levels, 5 μl of the 100 μl apical media sample was diluted in 45 μl DPBS in a new 96-well plate. Fresh, cell-free culture medium will be used as a blank. Fifty microliters of substrate solution was added to each well and incubated for 30 minutes at room temperature away from direct light. Following the 30 minute incubation, 50 μl of stop solution was added to each well. Optical density (OD) was measured at 490 nm with a uQuant absorbance plate reader from Biotek Instruments. The measurement of LDH release into the apical media indicates relative cytotoxicity of the samples. Percent cytotoxicity for each test formulation was calculated by subtracting the measured absorbance of the PBS control (basal level of LDH release) from the measured absorbance of the individual test formulation and then dividing that value by the measured absorbance for the 1% Triton X-100™ positive control, multiplied by 100.
The formula used to calculate percent cytotoxicity is as follows: [formula] Osmolality
as §1

## CNGRCGGKKKLKLLLKLL [PN679]
[1]; 25 μM peptide
  % FD3 Permeation: 0%
[1]; 100 μM peptide
  % FD3 Permeation: 7%
[1]; 250 μM peptide
  % FD3 Permeation: 8%
[1]; 500 μM peptide
  % FD3 Permeation: 10%
[1]; 1000 μM peptide
  % FD3 Permeation: 10%
[1]; based on observed TER reduction, sample permeation and cytotoxicity (LDH release)
  optimal concentration: 100 µM
[2]; 25 μM peptide
  % T0 TER: 70%
[2]; 100 μM peptide
  % T0 TER: 7%
[2]; 250 μM peptide
  % T0 TER: 2%
[2]; 500 μM peptide
  % T0 TER: −2%
[2]; 1000 μM peptide
  % T0 TER: −2%
[3]; 25 μM peptide
  LDH: 1%
[3]; 100 μM peptide
  LDH: 23%
[3]; 250 μM peptide
  LDH: 38%
[3]; 500 μM peptide
  LDH: 50%
[3]; 1000 μM peptide
  LDH: 51%
